# Reference: patent EP4596537A1, “NOVEL FLUORENE DERIVATIVE COMPOUND AND USE THEREOF” (JD Bioscience Inc., priority 2022, dated 2024)
# Tested on: PDHE1α S293
# Assay: In vitro PDH S293 phosphorylation inhibition (Western blot) in HEK293 cells
# Type: cell-based, human
# Settings: 5 hours, at 1 µM
# Experimental: HEK293 cells, which are human embryonic kidney cells, were seeded at a density of 2 × 10^6 in a 60 mm dish, and cultured for 24 hours. After replacing the medium with a medium comprising 0.5% FBS, the compounds prepared according to Examples 1 to 54 were treated at various concentrations. 5 hours later, the cells were scraped off and collected into a 15 mL conical tube and centrifuged at 1500 rpm for 10 minutes. The supernatant was discarded, the resultant was washed with 1× PBS, and transferred to a 1.5 mL e-tube, followed by centrifugation at 10,000 rpm for 5 minutes. The supernatant was discarded again, a lysis buffer was added, and the cells were lysed on ice for 30 minutes. The cells were vortexed every 10 minutes to completely lyse, and centrifuged again at 10,000 rpm for 15 minutes at 4°C, and the supernatant was collected. The protein in the supernatant was quantified using BCA technique, and the sample buffer was added to 20 µg of protein and allowed to react at 70°C for 5 minutes. The expression of PDHE1α S232, S293, S300, and total PDHE1α proteins was detected by Western blot, and the resulting PDH S293 phosphorylation inhibition is shown in Table 6. […]
row,Molecule,PDH S293 phosphorylation inhibition
1,N'-(3-chloro-5-(trifluoromethyl)pyridin-2-yl)-2-(4-(9-hydroxy-2-methoxy-9-(trifluoromethyl)-9H-fluoren-4-yl)-1H-pyrazol-1-yl)propanehydrazide [Example 33],++ (50% or more of PHDE1α S293 expression inhibition rate at 1 µM)

# Same assay, conditions: Homo sapiens, 5 hours
row,Molecule,inhibition at 1 µM
1,"CC(C(=O)NNc1cc(=O)n(C)c2ccccc12)n1cc(-c2cc(F)cc3c2-c2ccccc2C3(O)C(F)(F)F)cn1 (stereo not shown) [Example 40, 2-(4-(2-fluoro-9-hydroxy-9-(trifluoromethyl)-9H-fluoren-4-yl)-1H-pyrazol-1-yl)-N'-(1-methyl-2-oxo-1,2-dihydroquinolin-4-yl)propanehydrazide]",≥ 50%
2,"COc1cc(-c2cnn(C(C)C(=O)NNc3ccc(S(C)(=O)=O)cc3F)c2)c2c(c1)C(O)(C(F)(F)F)c1ccccc1-2 (stereo not shown) [Example 9, N'-(2-fluoro-4-(methylsulfonyl)phenyl)-2-(4-(9-hydroxy-2-methoxy-9-(trifluoromethyl)-9H-fluoren-4-yl)-1H-pyrazol-1-yl)propanehydrazide]",≥ 80%
3,"CC(C(=O)NNc1cc2ccccc2[nH]c1=O)n1cc(-c2cc(F)cc3c2-c2ccccc2C3(O)C(F)(F)F)cn1 (stereo not shown) [Example 38, 2-(4-(2-fluoro-9-hydroxy-9-(trifluoromethyl)-9H-fluoren-4-yl)-1H-pyrazol-1-yl)-N'-(2-oxo-1,2-dihydroquinolin-3-yl)propanehydrazide]",≥ 50%
4,"CC(C(=O)NNc1ccc2nccn2n1)n1cc(-c2cc(F)cc3c2-c2ccccc2C3(O)C(F)(F)F)cn1 (stereo not shown) [Example 41, 2-(4-(2-fluoro-9-hydroxy-9-(trifluoromethyl)-9H-fluoren-4-yl)-1H-pyrazol-1-yl)-N'-(imidazo[1,2-b]pyridazin-6-yl)propanehydrazide]",≥ 50%
5,"O=C(Cn1cc(-c2cc(F)cc3c2-c2ccccc2C3(O)C(F)(F)F)cn1)NNc1ccc(F)cc1 (stereo not shown) [Example 21, 2-(4-(2-fluoro-9-hydroxy-9-(trifluoromethyl)-9H-fluoren-4-yl)-1H-pyrazol-1-yl)-N'-(4-fluorophenyl)acetohydrazide]",≥ 50%
6,"CC(C)CC(C(=O)NNc1ccc(F)cc1)n1cc(-c2cc(F)cc3c2-c2ccccc2C3(O)C(F)(F)F)cn1 (stereo not shown) [Example 45, 2-(4-(2-fluoro-9-hydroxy-9-(trifluoromethyl)-9H-fluoren-4-yl)-1H-pyrazol-1-yl)-N'-(4-fluorophenyl)-4-methylpentanehydrazide]",≥ 50%
7,"CC(C(=O)NN1CCCCC1)n1cc(-c2cc(F)cc3c2-c2ccccc2C3(O)C(F)(F)F)cn1 (stereo not shown) [Example 53, 2-(4-(2-fluoro-9-hydroxy-9-(trifluoromethyl)-9H-fluoren-4-yl)-1H-pyrazol-1-yl)-N-(piperidin-1-yl)propanamide]",≥ 50%
8,"CC(C(=O)NNc1ccc2ccccc2n1)n1cc(-c2cc(F)cc3c2-c2ccccc2C3(O)C(F)(F)F)cn1 (stereo not shown) [Example 39, 2-(4-(2-fluoro-9-hydroxy-9-(trifluoromethyl)-9H-fluoren-4-yl)-1H-pyrazol-1-yl)-N'-(quinolin-2-yl)propanehydrazide]",≥ 50%
9,"CC(C(=O)NNc1ncnc2ccccc12)n1cc(-c2cc(F)cc3c2-c2ccccc2C3(O)C(F)(F)F)cn1 (stereo not shown) [Example 35, 2-(4-(2-fluoro-9-hydroxy-9-(trifluoromethyl)-9H-fluoren-4-yl)-1H-pyrazol-1-yl)-N'-(quinazolin-4-yl)propanehydrazide]",≥ 50%
10,"COc1cc(-c2cnn(C(C)C(=O)NNc3ccc(Cl)cc3)c2)c2c(c1)C(O)(C(F)(F)F)c1ccccc1-2 (stereo not shown) [Example 10, N'-(4-chlorophenyl)-2-(4-(9-hydroxy-2-methoxy-9-(trifluoromethyl)-9H-fluoren-4-yl)-1H-pyrazol-1-yl)propanehydrazide]",≥ 50%
11,"O=C(Cn1cc(-c2cc(F)cc3c2-c2ccccc2C3(O)C(F)(F)F)cn1)NNc1ccc(C(=O)O)cn1 (stereo not shown) [Example 20, 6-(2-(2-(4-(2-fluoro-9-hydroxy-9-(trifluoromethyl)-9H-fluoren-4-yl)-1H-pyrazol-1-yl)acetyl)hydrazinyl)nicotinic acid]",≥ 50%
12,"CC(C)(C)OC(=O)c1ccc(NNC(=O)Cn2cc(-c3cc(F)cc4c3-c3ccccc3C4(O)C(F)(F)F)cn2)nc1 (stereo not shown) [Example 19, tert-butyl 6-(2-(2-(4-(2-fluoro-9-hydroxy-9-(trifluoromethyl)-9H-fluoren-4-yl)-1H-pyrazol-1-yl)acetyl)hydrazinyl)nicotinate]",≥ 50%
